Assay results taken from US10160747B2, “Compounds and methods for kinase modulation, and indications therefor” (Plexxikon Inc., priority 2016, dated 2018).

Key:
FLT3-D835Y = biological target: T1, FLT3-D835Y (Homo sapiens, UniProt P36888, D835Y); test: FLT3-D835Y recombinant enzyme kinase assay (AlphaScreen); type: biochemical; details: 8 pt, GMean
T1 construct: purchased Invitrogen PV3967
T1 sequence (P36888 27-993 D835Y): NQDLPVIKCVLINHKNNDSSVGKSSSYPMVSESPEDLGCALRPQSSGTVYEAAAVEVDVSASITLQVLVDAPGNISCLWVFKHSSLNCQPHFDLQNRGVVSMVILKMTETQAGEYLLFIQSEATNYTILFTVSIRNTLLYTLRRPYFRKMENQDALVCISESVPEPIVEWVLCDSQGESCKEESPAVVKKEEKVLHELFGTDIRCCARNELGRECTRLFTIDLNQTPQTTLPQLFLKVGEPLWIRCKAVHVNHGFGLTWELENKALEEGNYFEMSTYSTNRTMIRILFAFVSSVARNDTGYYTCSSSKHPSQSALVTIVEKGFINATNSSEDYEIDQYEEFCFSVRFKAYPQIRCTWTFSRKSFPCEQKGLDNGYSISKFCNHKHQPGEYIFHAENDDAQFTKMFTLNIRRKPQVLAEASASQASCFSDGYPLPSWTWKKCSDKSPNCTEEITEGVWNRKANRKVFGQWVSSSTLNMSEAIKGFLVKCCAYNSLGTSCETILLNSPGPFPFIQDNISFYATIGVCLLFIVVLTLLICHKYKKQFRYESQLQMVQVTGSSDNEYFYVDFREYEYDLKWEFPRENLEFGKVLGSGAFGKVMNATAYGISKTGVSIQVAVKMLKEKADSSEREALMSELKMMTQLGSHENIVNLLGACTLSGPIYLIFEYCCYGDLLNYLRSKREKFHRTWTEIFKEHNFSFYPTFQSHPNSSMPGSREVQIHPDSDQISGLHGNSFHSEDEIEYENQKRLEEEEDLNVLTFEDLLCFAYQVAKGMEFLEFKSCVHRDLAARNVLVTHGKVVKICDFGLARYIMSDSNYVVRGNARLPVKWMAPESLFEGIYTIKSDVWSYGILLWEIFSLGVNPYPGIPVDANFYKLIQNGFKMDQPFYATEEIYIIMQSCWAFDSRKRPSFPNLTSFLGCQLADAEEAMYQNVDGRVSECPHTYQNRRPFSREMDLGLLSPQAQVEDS
Method: (§1) In order to determine the effect of compounds on FLT3 catalytic activity, kinase assays using recombinant enzymes and AlphaScreen® technology have been established. The catalytic activity of c-kit activity was also measured to determine selectivity of the compounds. When the kinases are catalytically active, they phosphorylate a biotinylated peptide substrate on tyrosine residues. Using AlphaScreen® technology, the ability of the compounds to affect the catalytic activity of the kinases can be measured quantitatively. The peptide substrate is immobilized by the AlphaScreen® Streptavidin Donor beads and, upon phosphorylation by a tyrosine kinase, can bind to AlphaScreen® Anti-Phosphotyrosine (PY20) Acceptor beads. Upon excitation of these beads with laser light at 680 nm, singlet oxygen is produced. This singlet oxygen is rapidly quenched, unless the AlphaScreen® Anti-Phosphotyrosine (PY20) Acceptor beads are in close proximity, in which case a proximity signal can be measured at 580 nm. In the presence of catalytic activity, there is a very strong proximity signal. Selective kinase inhibitors affect a decrease in this proximity signal through a decrease in tyrosine phosphorylation of the peptide substrate.
(§2) The assay was performed as summarized below.
(§3) Poly (Glu4-Tyr) Peptide, biotin conjugate [Biotin-GG(EEEEY)10EE] (SEQ ID NO: 4)
(§4) Final concentration=30 nM
(§5) Adenosine Triphosphate (ATP)
(§6) Final concentration for IC50 determination=10 μM (FLT3-D835Y or FLT3-ITD) or 100 μM (c-KIT)
(§7) AlphaScreen® Phosphotyrosine (PY20) Assay Kit
(§8) Final concentration=10 μg/mL
(§9) Dilute compounds in DMSO to 20× final concentration.
(§10) Add 1 μL of compound to each well of 384 well reaction plate (Perkin Elmer #6005359).
(§11) Mix enzyme and Poly (Glu4-Tyr) Peptide substrate at 1.33× final concentration in assay buffer.
(§12) Mix ATP at 5× final concentration in assay buffer.
(§13) Add 15 μL enzyme/substrate mixture to the reaction plate.
(§14) Add 4 μL of ATP to the reaction plate.
(§15) Mix Streptavidin Donor beads at 6× final concentration in Stop/Detection buffer.
(§16) Add 5 μL Streptavidin Donor beads to the reaction plate. Centrifuge 1 minute, shake to mix, and incubate at room temperature for 20 minutes.
(§17) Mix Anti-Phosphotyrosine (PY20) Acceptor beads at 6× final concentration in Stop/Detection buffer.
(§18) Add 5 μL Anti-Phosphotyrosine (PY20) beads to the reaction plate.
(§19) Centrifuge 1 minute, shake to mix, and incubate at room temperature for 60 minutes.
(§20) Read plate on Wallac EnVision™ 2103 Multilabel Reader.

c-KIT = biological target: T2, c-KIT (Homo sapiens, UniProt P10721); test: c-KIT recombinant enzyme kinase assay (AlphaScreen); type: biochemical; details: 100 ATP, 8 pt
T2 construct: purchased Millipore 14-559K
T2 sequence (P10721 26-976): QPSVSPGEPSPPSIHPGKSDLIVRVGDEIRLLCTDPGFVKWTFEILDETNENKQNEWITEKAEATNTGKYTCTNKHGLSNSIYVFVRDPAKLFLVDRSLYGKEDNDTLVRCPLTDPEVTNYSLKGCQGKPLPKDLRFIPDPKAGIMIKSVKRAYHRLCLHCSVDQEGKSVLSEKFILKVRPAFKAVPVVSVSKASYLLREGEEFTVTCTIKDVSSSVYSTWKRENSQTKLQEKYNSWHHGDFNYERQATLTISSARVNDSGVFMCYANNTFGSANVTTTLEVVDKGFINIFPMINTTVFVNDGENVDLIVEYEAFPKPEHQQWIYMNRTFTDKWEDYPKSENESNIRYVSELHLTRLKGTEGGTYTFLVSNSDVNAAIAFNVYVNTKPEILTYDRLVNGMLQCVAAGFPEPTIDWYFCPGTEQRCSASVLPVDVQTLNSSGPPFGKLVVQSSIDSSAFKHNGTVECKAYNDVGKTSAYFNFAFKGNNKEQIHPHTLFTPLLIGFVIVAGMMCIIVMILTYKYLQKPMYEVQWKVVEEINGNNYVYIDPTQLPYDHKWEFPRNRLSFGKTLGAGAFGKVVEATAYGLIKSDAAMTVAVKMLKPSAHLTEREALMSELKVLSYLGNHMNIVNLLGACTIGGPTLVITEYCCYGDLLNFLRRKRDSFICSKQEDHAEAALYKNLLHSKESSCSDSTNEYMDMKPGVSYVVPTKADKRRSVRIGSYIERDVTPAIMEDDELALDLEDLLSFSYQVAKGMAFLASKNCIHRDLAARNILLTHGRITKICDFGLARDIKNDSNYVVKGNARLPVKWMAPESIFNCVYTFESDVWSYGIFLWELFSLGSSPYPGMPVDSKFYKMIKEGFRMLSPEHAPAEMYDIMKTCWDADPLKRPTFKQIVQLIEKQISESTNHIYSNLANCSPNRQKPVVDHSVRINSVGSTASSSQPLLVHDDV
Method: as §1, §2, §3, §4, §5, §6, §7, §8, §9, §10, §11, §12, §13, §14, §15, §16, §17, §18, §19, §20

Row | IC50 (FLT3-D835Y) [µM] | IC50 (c-KIT) [µM] | Structure (SMILES)
1 | 0.0001 to 10 | – | O=C(Cc1ccc(-c2cnc3[nH]c(-c4ccccc4)cc3c2)c(F)c1)Nc1cccc(C(F)(F)F)c1 [Compound P-0003, 2-[3-fluoro-4-(2-phenyl-1H-pyrrolo[2,3-b]pyridin-5-yl)phenyl]-N-[3-(trifluoromethyl)phenyl]acetamide]
2 | 0.0001 to 10 | – | O=C(Cc1ccc(-c2cnc3[nH]c(-c4ccccc4)cc3c2)cc1F)Nc1ccnc(C(F)(F)F)c1 [Compound P-0004, 2-[2-fluoro-4-(2-phenyl-1H-pyrrolo[2,3-b]pyridin-5-yl)phenyl]-N-[2-(trifluoromethyl)-4-pyridyl]acetamide]
3 | 0.0001 to 10 | 0.0001 to 10 | O=C(Cc1ccc(-c2cnc3[nH]c(-c4ccccc4)cc3c2)cn1)Nc1ccnc(C(F)(F)F)c1 [Compound P-0005, 2-[5-(2-phenyl-1H-pyrrolo[2,3-b]pyridin-5-yl)-2-pyridyl]-N-[2-(trifluoromethyl)-4-pyridyl]acetamide]
4 | 0.0001 to 10 | 0.0001 to 10 | Cc1ncc(NC(=O)Cc2ccc(-c3cnc(Nc4cnn(C)c4)nc3)cc2F)cc1C(F)(F)F [Compound P-0091, 2-[2-fluoro-4-[2-[(1-methylpyrazol-4-yl)amino]pyrimidin-5-yl]phenyl]-N-[6-methyl-5-(trifluoromethyl)-3-pyridyl]acetamide]
5 | 0.0001 to 10 | 0.0001 to 10 | Cn1cc(Nc2ncc(-c3ccc(CC(=O)Nc4cnc(Cl)c(C(F)(F)F)c4)c(F)c3)cn2)cn1 [Compound P-0092, N-[6-chloro-5-(trifluoromethyl)-3-pyridyl]-2-[2-fluoro-4-[2-[(1-methylpyrazol-4-yl)amino]pyrimidin-5-yl]phenyl]acetamide]
6 | 0.0001 to 10 | 0.0001 to 10 | CC(C)c1cc(NC(=O)Cc2ccc(-c3cnc(Nc4cnn(C)c4)nc3)cc2F)ccn1 [Compound P-0094, 2-[2-fluoro-4-[2-[(1-methylpyrazol-4-yl)amino]pyrimidin-5-yl]phenyl]-N-(2-isopropyl-4-pyridyl)acetamide]
7 | 0.0001 to 10 | 0.0001 to 10 | Cn1cc(Nc2ncc(-c3ccc(CC(=O)Nc4ccc(C(F)(F)F)nc4)cc3)cn2)cn1 [Compound P-0095, 2-[4-[2-[(1-methylpyrazol-4-yl)amino]pyrimidin-5-yl]phenyl]-N-[6-(trifluoromethyl)-3-pyridyl]acetamide]
8 | 0.0001 to 10 | 0.0001 to 10 | Cn1cnc(Nc2ncc(-c3ccc(CC(=O)Nc4cc(C(F)(F)F)ccn4)c(F)c3)cn2)c1 [Compound P-0096, 2-[2-fluoro-4-[2-[(1-methylimidazol-4-yl)amino]pyrimidin-5-yl]phenyl]-N-[4-(trifluoromethyl)-2-pyridyl]acetamide]
9 | 0.0001 to 10 | 0.0001 to 10 | Cn1cc(Nc2ncc(-c3ccc(CC(=O)Nc4ccnc(C5CC5)c4)cc3)cn2)cn1 [Compound P-0097, N-(2-cyclopropyl-4-pyridyl)-2-[4-[2-[(1-methylpyrazol-4-yl)amino]pyrimidin-5-yl]phenyl]acetamide]
10 | 0.0001 to 10 | 0.0001 to 10 | Cn1cc(Nc2ncc(-c3ccc(CC(=O)Nc4ccnc(C5CC5)c4)c(F)c3)cn2)cn1 [Compound P-0098, N-(2-cyclopropyl-4-pyridyl)-2-[2-fluoro-4-[2-[(1-methylpyrazol-4-yl)amino]pyrimidin-5-yl]phenyl]acetamide]
11 | 0.0001 to 10 | 0.0001 to 10 | Cc1ncc(NC(=O)Cc2ccc(-c3cnc(Nc4cn(C)cn4)nc3)cc2F)cc1C(F)(F)F [Compound P-0099, 2-[2-fluoro-4-[2-[(1-methylimidazol-4-yl)amino]pyrimidin-5-yl]phenyl]-N-[6-methyl-5-(trifluoromethyl)-3-pyridyl]acetamide]
12 | 0.0001 to 10 | 0.0001 to 10 | Cn1cnc(Nc2ncc(-c3ccc(CC(=O)Nc4cnc(Cl)c(C(F)(F)F)c4)c(F)c3)cn2)c1 [Compound P-0100, N-[6-chloro-5-(trifluoromethyl)-3-pyridyl]-2-[2-fluoro-4-[2-[(1-methylimidazol-4-yl)amino]pyrimidin-5-yl]phenyl]acetamide]
13 | – | 0.0001 to 10 | Cn1cc(Nc2ncc(-c3ccc(CC(=O)NCc4cccnc4)cc3)cn2)cn1 [Compound P-0132, 2-[4-[2-[(1-methylpyrazol-4-yl)amino]pyrimidin-5-yl]phenyl]-N-(3-pyridylmethyl)acetamide]
14 | – | 0.0001 to 10 | COc1cc(NC(=O)Cc2ccc(-c3cnc(Nc4cnn(C)c4)nc3)cc2)ccn1 [Compound P-0153, N-(2-methoxy-4-pyridyl)-2-[4-[2-[(1-methylpyrazol-4-yl)amino]pyrimidin-5-yl]phenyl]acetamide]
15 | – | 0.0001 to 10 | Cn1cc(Nc2ncc(-c3ccc(CC(=O)NCc4ncccc4C(F)(F)F)cc3)cn2)cn1 [Compound P-0159, 2-[4-[2-[(1-methylpyrazol-4-yl)amino]pyrimidin-5-yl]phenyl]-N-[[3-(trifluoromethyl)-2-pyridyl]methyl]acetamide]
16 | – | 0.0001 to 10 | COc1ccccc1CNC(=O)Cc1ccc(-c2cnc(Nc3cnn(C)c3)nc2)cc1 [Compound P-0160, N-[(2-methoxyphenyl)methyl]-2-[4-[2-[(1-methylpyrazol-4-yl)amino]pyrimidin-5-yl]phenyl]acetamide]
17 | 0.0001 to 10 | – | Cn1cc(Nc2ncc(-c3ccc(CC(=O)Nc4cc(Cl)c(C5CC5)cn4)cc3)cn2)cn1 [Compound P-0164, N-(4-chloro-5-cyclopropyl-2-pyridyl)-2-[4-[2-[(1-methylpyrazol-4-yl)amino]pyrimidin-5-yl]phenyl]acetamide]
18 | 0.0001 to 10 | – | Cc1ncc(NC(=O)Cc2ccc(-c3cnc4[nH]nc(C)c4c3)c(F)c2)cc1C(F)(F)F [Compound P-0172, 2-[3-fluoro-4-(3-methyl-1H-pyrazolo[3,4-b]pyridin-5-yl)phenyl]-N-[6-methyl-5-(trifluoromethyl)-3-pyridyl]acetamide]
19 | 0.0001 to 10 | – | O=C(Cc1ccc(-c2cnc3[nH]c(-c4ccc(N5CCOCC5)nc4)cc3c2)c(F)c1)Nc1cc(C(F)(F)F)ccn1 [Compound P-0192, 2-[3-fluoro-4-[2-(6-morpholino-3-pyridyl)-1H-pyrrolo[2,3-b]pyridin-5-yl]phenyl]-N-[4-(trifluoromethyl)-2-pyridyl]acetamide]
20 | 0.0001 to 10 | – | O=C(Cc1ccc(-c2cnc3[nH]c(-c4cnn(C(F)F)c4)cc3c2)c(F)c1)Nc1cncc(C(F)(F)F)c1 [Compound P-0197, 2-[4-[2-[1-(difluoromethyl)pyrazol-4-yl]-1H-pyrrolo[2,3-b]pyridin-5-yl]-3-fluoro-phenyl]-N-[5-(trifluoromethyl)-3-pyridyl]acetamide]
21 | – | 0.0001 to 10 | N#Cc1cc(-c2cc3cc(-c4ccc(CC(=O)Nc5cncc(C(F)(F)F)c5)cc4F)cnc3[nH]2)ccn1 [Compound P-0199, 2-[4-[2-(2-cyano-4-pyridyl)-1H-pyrrolo[2,3-b]pyridin-5-yl]-3-fluoro-phenyl]-N-[5-(trifluoromethyl)-3-pyridyl]acetamide]

Row | Structure (SMILES) | IC50 (FLT3-D835Y) [µM] | IC50 (c-KIT) [µM]
22 | COc1ncc(NC(=O)Cc2ccc(-c3cnc(Nc4cn(C)cn4)nc3)cc2F)cc1C(F)(F)F [Compound P-0101, 2-[2-fluoro-4-[2-[(1-methylimidazol-4-yl)amino]pyrimidin-5-yl]phenyl]-N-[6-methoxy-5-(trifluoromethyl)-3-pyridyl]acetamide] | 0.0001 to 10 | 0.0001 to 10
